Data taken from article PMC6222509, “Dibasic Derivatives of Phenylcarbamic Acid against Mycobacterial Strains: Old Drugs and New Tricks?” (Molecules : A Journal of Synthetic Chemistry and Natural …, 2018).

How the values were obtained:
[1] = surface tension, drop count method, Traube stalagmometer; assay type: physicochemical; conditions: aqueous solution c = 2.0 × 10^−3 M, 21 °C; water γ = 0.07259 N/m
Description: Surface tension (relative surface activity; γ) of aqueous solutions of the compounds 1a–p (c = 2.0 × 10^−3 M) was determined by a drop count technique using a Traube stalagmometer. All evaluated substances were able to decrease surface tension of water (γ = 0.07259 N/m) at 21 °C.
Surface tension (relative surface activity; γ) of the derivatives 1a–p was determined by a drop count method using a glassy Traube stalagmometer (Kavalier Glass, Prague, Czech Republic). Number of drops of compounds’ and reference solutions were counted between upper and lower marks of the stalagmometer. Aqueous solutions of the molecules 1a–p were prepared with distilled, deionized water (c = 2.0 × 10^−3 M). […] The drops were allowed to form at constant temperature 21 °C. The experimental procedure was described in a paper. Current measurements were done in six replicates and average γ values (in N/m units) were reported (Table 1).

[2] = electronic properties, UV/Vis spectrophotometry of methanolic solutions; assay type: physicochemical; conditions: methanolic solution c = 8.0 × 10^−5 M; for log ε2 (Ch-T): charge-transfer maximum λ2 (Ch-T) = 236–238 nm; for log ε1: λ1 = 208–210 nm; for log ε3: λ3 = 278–280 nm
Source text: Electronic properties of the molecules 1a–p (Table 1) were characterized by logarithms of molar absorption coefficients (log ε) of their methanolic solutions (c = 8.0 × 10^−5 M) investigated in the UV/Vis region of an electromagnetic spectrum.
Positions of these absorption bands in the spectrum were typical for derivatives of (substituted) phenylcarbamic acid and the bands were assigned as first local excitation (λ3), charge-transfer (λ2 (Ch-T)) and second local excitation (λ1) absorption maxima, respectively. The λ1 and λ2 (Ch-T) maxima of 2-alkoxy substituted compounds 1a–d and 1i–l were slightly lower compared to those of their 3-alkoxy substituted positional isomers 1e–h and 1m–p (Table 1), respectively.
The UV/Vis spectra of methanolic solutions of analyzed compounds 1a–p (c = 8.0 × 10^−5 M) were observed on the 8452A Diode Array spectrophotometer HP-8452A (Hewlett-Packard, Palo Alto, CA, USA) at 21 °C. Methanol for UV-spectroscopy (Merck, Darmstadt, Germany) was used for preparation of these solutions. Results of the UV/Vis analyses were collected and stored digitally using the ChemStation controller software (Agilent Technologies, Waldbronn, Germany). The HP-8452A apparatus measured a complete range of compounds’ spectrum from 190 nm to 820 nm.
The log ε values for presently observed absorption maxima were calculated following the Lambert-Beer’s law, which was discussed in [35], for example, and expressed by Equation (16):A = ε × c × l(16) where the A parameter represented absorbance of a compound’s solution, the ε descriptor was a molar absorption coefficient (in L/mol/cm units) and l was path length (in cm units).

[3] = lipophilicity by isocratic RP-HPLC (log k, k, log kw, S); assay type: physicochemical; conditions: for log kw: extrapolated to 100% water from log k versus ϕM; for S (slope): slope of log k versus ϕM regression
Source text: Octadecyl-functionalized silica gel was currently used as a stationary phase (SPh) and a […] of two solvents at different volume ratios modified retention properties of the SPh. Liquid binary mixtures of methanol (MeOH) with water were employed as mobile phases (MPhs) in the isocratic RP-HPLC. The MeOH modifier was preferred because of similarity of both observed and extrapolated lipophilicity parameters with the ones determined in the octan-1-ol/water partition system, considering also sensitivity to H-bond donor properties of investigated compounds [41].
The modifier was applied in different volume concentrations, which varied from […] (v/v) with 5% increments. This interval was chosen due to very high lipophilicity of investigated salts. Practically, lower volume concentration of MeOH, i.e., less than 85% (v/v) in used MPhs, caused uncertainty of retention times (tr) due to notable peaks broadening, especially within subsets 1i–l and 1m–p. […] The highest tr parameters were found for the molecules 1k (tr = 47.108 min) and 1l (tr = 70.012 min) in the MPh containing 85% proportion (v/v) of MeOH (Table 2).
According to the authors’ opinions based on systematic scientific literature survey, a current research paper was the first, which aimed the log kw parameters of 2-/3-alkoxyphenylcarbamic acid derivatives containing two centers of protonation. The log kw values were extrapolated from intercepts of a relationship between log k and volume fraction of the MPh modifier (ϕM) using the Snyder–Soczewiński linear solvent strength model. The relationship was justified by R > 0.9900, Adj. R^2 > 0.9750 as well as F > 180.00 for calculation of particular log kw parameters (Table 3).
The HPLC separation module Waters e2695 equipped with a Waters 2996 PDA Detector (Waters Corp., Milford, MA, USA) and chromatographic column Symmetry C18 × 5 μm, 4.6 × 250 mm, Part No. W21751W016 (Waters Corp.) were used for estimation of lipophilic properties of the compounds 1a–p at 21 °C.
Isocratic elution was carried out using mobile phases consisting of methanol p.a. (MeOH; Honeywell, Paris, France) and purified water in various volume ratios (80:20, 85:15, 90:10, 95:5 (v/v) and pure MeOH, respectively). Distilled water (CentralChem, Bratislava, Slovak Republic) was purified by the Aquinity2 P10 ultra-pure water system for production of ultra-pure water with an integrated 10 L permeate tank (membraPure, Hennigsdorf, Germany).
Total flow of the column was 1.0 mL/min, injection volume was 4 μL and column temperature was set to 40 °C. The detection wavelengths varying from 236 nm to 238 nm were chosen for current experimental procedures.
Lipophilicity of the compounds 1a–p was determined by reversed-phase high-performance liquid chromatography (RP-HPLC). Methanol (MeOH)/water mobile phases with varying volume ratio of the organic modifier and water (80:20, 85:15, 90:10, 95:5 (v/v) and pure MeOH, respectively) were chosen.
A methanolic solution of potassium iodine was used for dead time (td) determination. Retention factors (capacity factors; k) were calculated according to Equation (17):k = (tr− td)/td(17) where tr was retention time of a solute (in min), the td parameter denoted dead time of potassium iodine, an unretained analyte (in min).
The observed retention (tr) and dead (td) times were means of three independent determinations. Average td values of potassium iodine in used MPhs were as follows: 2.237 min (MeOH/water ratio (v/v) was 80:20), 2.245 min (85:15), 2.245 min (90:10), 2.228 min (95:5) and 2.210 min (pure MeOH), respectively. […]

[4] = tested on: M. kansasii DSM 44162 (MK DSM); assay: in vitro antimycobacterial MIC, broth dilution micromethod in Middlebrook 7H9; assay type: cell-based; conditions: Mycobacterium kansasii, DSM 44162 / DSM 7, 168 h, read-out: MIC MK DSM 7-d, 7-day cultivation, 37 °C
[5] = mobile phase MeOH/water 80:20 (v/v)
[6] = mobile phase MeOH/water 85:15 (v/v)
[7] = mobile phase MeOH/water 90:10 (v/v)
[8] = mobile phase MeOH/water 95:5 (v/v)

| Compound | surface tension γ (relative surface activity) [1] | log ε2 (Ch-T) [2] | log ε1 [2] | log ε3 [2] | log kw [3] | k (retention factor) [3, 5] | log k [3, 5] | k (retention factor) [3, 6] | log k [3, 6] | k (retention factor) [3, 7] | log k [3, 7] | k (retention factor) [3, 8] | log k [3, 8] | k (retention factor) ([3]; mobile phase pure MeOH) | log k ([3]; mobile phase pure MeOH) | S (slope) [3] | MIC [4] |
| --- | --- | --- | --- | --- | --- | --- | --- | --- | --- | --- | --- | --- | --- | --- | --- | --- | --- |
| CCCCCCOc1cccc(NC(=O)OC(CN(CCC)CCC)CN2CCCCCC2)c1.Cl.Cl (stereo not shown) [1o, 1-[2-[({[3-(hexyloxy)phenyl]amino}-carbonyl)oxy]-3-(dipropylammonio)propyl]azepanium dichloride] | 0.05925 N/m | 4.01 | 4.52 | 3.37 | 5.6569 | 12.0420 | 1.0807 | 5.0804 | 0.7059 | 3.2915 | 0.5174 | 1.2868 | 0.1095 | 0.8674 | −0.0618 | 5.7628 | 3.6 µM |
| CCCCCCCOc1cccc(NC(=O)OC(CN(CCC)CCC)CN2CCCCCC2)c1.Cl.Cl (stereo not shown) [1p, 1-[2-[({[3-(heptyloxy)phenyl]amino}carbonyl)-oxy]-3-(dipropylammonio)propyl]azepanium dichloride] | 0.05692 N/m | 4.20 | 4.65 | 3.56 | 6.1749 | 14.0734 | 1.1484 | 6.6298 | 0.8215 | 4.0476 | 0.6072 | 1.6036 | 0.2051 | 0.7759 | −0.1102 | 6.2672 | 3.6 µM |
